Assay [1] relates to HBV. Nature of the assay: Inhibition of HBV in HepG2.117 cells (anti-HBV activity, qPCR). The class given is cell-based. The following applies: HBV viral DNA copy numbers in supernatant by qPCR. (In qPCR the cycle at which signal appears reflects the starting amount.)
In assay [2] the test system is VSV-G pseudotyped HIV NL4-3. The assay is described as follows: microbe, parasite or virus in culture. It is filed as cell-based.
Where [3] appears, read: Hepatitis B virus, HepG2.117, 96 h, Table 4 phosphoramidate prodrugs.
Where [4] appears, read: Human immunodeficiency virus 1, NL43, 72 h, read-out: HIV EC50 (uM).
The mark [5] stands for this setting: Hepatitis B virus, HepG2.117, 96 h, Table 2 nucleosides.

Each structure is given as a SMILES string. Where two headings read alike, the source gives them in different places.

As usually defined, the EC50 is the concentration at which the effect is half-maximal. With `C=C1[C@@H](n2cnc3c(=O)[nH]c(N)nc32)C[C@H](O)[C@@]1(C#N)COP(=O)(N[C@@H](C)C(=O)OC(C)C)Oc1ccccc1` (single isomer, unassigned) [Example 44, Isopropyl ((S*)-(((1S,3S,5S)-3-(2-amino-6-oxo-1,6-dihydro-9H-purin-9-yl)-1-cyano-5-hydroxy-2-methylenecyclopentyl)methoxy)(phenoxy)phosphoryl)-L-alaninate], the EC50 in assay [1] (setting [3]) was 459 nM; in assay [2] (setting [4]) it was 2.29 µM.
Turning to `C=C1[C@H](CO)[C@@H](O)C[C@@H]1n1ccc2c(N)ncnc21` [Example 9, (1S,2R,4S)-4-(4-Amino-7H-pyrrolo[2,3-d]pyrimidin-7-yl)-2-(hydroxymethyl)-3-methylenecyclopentan-1-ol], the concentration for a half-maximal effect (EC50) in assay [1] (setting [5]) is 7410 nM; in assay [2] (setting [4]), > 33.3 µM.
Turning to `C#C[C@]1(COP(=O)(N[C@@H](C)C(=O)OC(C)C)Oc2ccccc2)C(=C)[C@@H](n2cnc3c(N)ncnc32)C[C@@H]1O` (stereo partly drawn) [Example 38, Isopropyl ((((1R,3S,5S)-3-(6-amino-9H-purin-9-yl)-1-ethynyl-5-hydroxy-2-methylenecyclopentyl)methoxy)(phenoxy)phosphoryl)-L-alaninate], the figures for the EC50 in assay [1] (setting [3]) and in assay [2] (setting [4]) were 2370 nM and 0.0506 µM, respectively.
On to `C=C[C@]1(CO)C(=C)[C@@H](n2cnc3c(N)ncnc32)C[C@@H]1O` [Example 20, (1S,2R,4S)-4-(6-Amino-9H-purin-9-yl)-2-(hydroxymethyl)-3-methylene-2-vinylcyclopentan-1-ol], for which the values for the EC50 in assay [1] (setting [5]) and in assay [2] (setting [4]) were > 10000 nM and 0.547 µM, respectively.
Turning to `C=C1[C@@H](n2cnc3c(=O)[nH]c(N)nc32)C[C@H](O)[C@@]1(C#N)CO` [Example 18, (1S,3S,5S)-3-(2-Amino-6-oxo-1,6-dihydro-9H-purin-9-yl)-5-hydroxy-1-(hydroxymethyl)-2-methylenecyclopentane-1-carbonitrile], the EC50 in assay [1] (setting [5]) came out at 46.6 nM; in assay [2] (setting [4]) it was 0.12 µM.
In the case of `C=C1[C@@H](n2cnc3c(=O)[nH]c(N)nc32)C[C@H](O)[C@@]1(C#N)COP(=O)(N[C@@H](C)C(=O)OC(C)C)Oc1ccccc1` (single isomer, unassigned) [Example 43, Isopropyl ((R*)-(((1S,3S,5S)-3-(2-amino-6-oxo-1,6-dihydro-9H-purin-9-yl)-1-cyano-5-hydroxy-2-methylenecyclopentyl)methoxy)(phenoxy)phosphoryl)-L-alaninate], the EC50 in assay [1] (96 h, Table 4 phosphoramidate prodrugs) worked out at 591 nM; in assay [2] (read-out: HIV EC50), 4.25 µM.
As to `C=C1[C@H](CO)[C@@H](O)C[C@@H]1n1ccc2c(=O)[nH]c(N)nc21` [Example 2, 2-Amino-7-((1S,3R,4S)-4-hydroxy-3-(hydroxymethyl)-2-methylenecyclopentyl)-3,7-dihydro-4H-pyrrolo[2,3-d]pyrimidin-4-one], the 50% effective concentration (EC50) was > 10000 nM in assay [1] (setting [5]) and > 33.3 µM in assay [2] (setting [4]).
Regarding `C=C1[C@@H](n2cnc3c(=O)[nH]c(N)nc32)C[C@H](O)[C@@]1(F)CO` [Example 4, 2-Amino-9-((1S,3S,4S)-3-fluoro-4-hydroxy-3-(hydroxymethyl)-2-methylenecyclopentyl)-1,9-dihydro-6H-purin-6-one], the results for the half-maximal effective concentration (EC50) in assay [1] (setting [5]) and in assay [2] (setting [4]) were < 0.9 nM and 0.0356 µM, respectively.
With `C=C1[C@@H](n2ccc(N)nc2=O)C[C@H](O)[C@@]1(C#N)COP(=O)(N[C@@H](C)C(=O)OC(C)C)Oc1ccccc1` (stereo partly drawn) [Example 42, Isopropyl ((((1S,3S,5S)-3-(4-amino-2-oxopyrimidin-1(2H)-yl)-1-cyano-5-hydroxy-2-methylenecyclopentyl)methoxy)(phenoxy)phosphoryl)-L-alaninate], the EC50 is > 10000 nM in assay [1] (setting [3]) and 10.4 µM in assay [2] (setting [4]).
As for `C=C1[C@@H](n2cc(C)c(=O)[nH]c2=O)C[C@H](O)[C@@]1(F)CO` [Example 3, 1-((1S,3S,4S)-3-Fluoro-4-hydroxy-3-(hydroxymethyl)-2-methylenecyclopentyl)-5-methylpyrimidine-2,4(1H,3H)-dione], the values for the half-maximal effective concentration (EC50) in assay [1] (setting [5]) and in assay [2] (setting [4]) were > 10000 nM and > 33.3 µM, respectively.
On to `C=C1[C@@H](n2cnc3c(N)ncnc32)C[C@H](O)[C@]1(CO)CF` [Example 13, (1S,2S,4S)-4-(6-Amino-9H-purin-9-yl)-2-(fluoromethyl)-2-(hydroxymethyl)-3-methylenecyclopentan-1-ol], for which the results for the EC50 in assay [1] (setting [5]) and in assay [2] (setting [4]) were > 5530 nM and 5.02 µM, respectively.
Regarding `C=C1[C@@H](n2cnc3c(N)ncnc32)C[C@H](O)[C@@]1(F)CO` [Example 6, (1S,2S,4S)-4-(6-Amino-9H-purin-9-yl)-2-fluoro-2-(hydroxymethyl)-3-methylenecyclopentan-1-ol], the EC50 in assay [1] (setting [5]) is 61.7 nM; in assay [2] (setting [4]), 2.68 µM.
For `C=C1[C@@H](n2ccc(N)nc2=O)C[C@H](O)[C@]1(CO)CF` [Example 11, 4-Amino-1-((1S,3S,4S)-3-(fluoromethyl)-4-hydroxy-3-(hydroxymethyl)-2-methylenecyclopentyl)pyrimidin-2(1H)-one], in that order: 9180 nM and 0.911 µM.
Take `C=C1[C@@H](n2cnc3c(N)ncnc32)C[C@H](O)[C@]1(CO)CCl` [Example 14, (1S,2S,4S)-4-(6-Amino-9H-purin-9-yl)-2-(chloromethyl)-2-(hydroxymethyl)-3-methylenecyclopentan-1-ol]: the EC50 in assay [1] (setting [5]) is 3450 nM; in assay [2] (setting [4]), 1.08 µM.
`C=C1[C@H](n2cnc3c(=O)[nH]c(N)nc32)C[C@H](O)[C@]1(F)CO` [Example 5, 2-Amino-9-((1R,3R,4S)-3-fluoro-4-hydroxy-3-(hydroxymethyl)-2-methylenecyclopentyl)-1,9-dihydro-6H-purin-6-one]: the EC50 is 2470 nM in assay [1] (setting [5]) and > 33.3 µM in assay [2] (setting [4]).
Regarding `C=C1[C@@H](n2cnc3c(N)ncnc32)C[C@H](O)[C@@]1(F)COP(=O)(N[C@@H](C)C(=O)OCC(C)(C)C)Oc1ccccc1` (stereo partly drawn) [Example 39, Neopentyl ((((1S,3S,5S)-3-(6-amino-9H-purin-9-yl)-1-fluoro-5-hydroxy-2-methylenecyclopentyl)methoxy)(phenoxy)phosphoryl)-L-alaninate], the concentration giving a half-maximal response (EC50) in assay [1] (setting [3]) was 0.3 nM; in assay [2] (setting [4]), 0.0139 µM.
In the case of `C=C1[C@@H](n2ccc(N)nc2=O)C[C@H](O)[C@@]1(C#N)CO` [Example 16, (1S,3S,5S)-3-(4-Amino-2-oxopyrimidin-1(2H)-yl)-5-hydroxy-1-(hydroxymethyl)-2-methylenecyclopentane-1-carbonitrile], the results for the EC50 in assay [1] (setting [5]) and in assay [2] (setting [4]) were > 10000 nM and 5.83 µM, respectively.
On to `C=C1[C@@H](n2cc(C)c(=O)[nH]c2=O)C[C@H](O)[C@@]1(C#N)COP(=O)(N[C@@H](C)C(=O)OC(C)C)Oc1ccccc1` (stereo partly drawn) [Example 41, Isopropyl ((((1S,3S,5S)-1-cyano-5-hydroxy-3-(5-methyl-2.4-dioxo-3.4-dihydropyrimidin-1(2H)-yl)-2-methylenecyclopentyl)methoxy)(phenoxy)phosphoryl)-L-alaninate], for which the values for the 50% effective concentration (EC50) in assay [1] (setting [3]) and in assay [2] (setting [4]) were > 10000 nM and 10.2 µM, respectively.
For `C=C1[C@@H](n2cc(C)c(=O)[nH]c2=O)C[C@H](O)[C@]1(CO)CF` [Example 12, 1-((1S,3S,4S)-3-(fluoromethyl)-4-hydroxy-3-(hydroxymethyl)-2-methylenecyclopentyl)-5-methylpyrimidine-2,4(1H,3H)-dione], the results for the EC50 in assay [1] (setting [5]) and in assay [2] (setting [4]) were > 10000 nM and > 33.3 µM, respectively.
As for `C=C1[C@@H](n2ccc3c(N)ncnc32)C[C@H](O)[C@@]1(F)CO` [Example 1, (1S,2S,4S)-4-(4-Amino-7H-pyrrolo[2,3-d]pyrimidin-7-yl)-2-fluoro-2-(hydroxymethyl)-3-methylenecyclopentan-1-ol], in assay [1] (setting [5]), a half-maximal effect (EC50) was put at 10.9 nM.
